Reference: patent US12209144B2, “Cyclic peptides as proprotein convertase subtilisin/kexin type 9 (PCSK9) inhibitors for the treatment of metabolic disorders” (Novartis AG, priority 2018, dated 2025)
Bridge positions count the residues as written; N and C are the ends. Square brackets hold non-standard residues; d marks the D form. Peptide text beside a SMILES is read from it. ξ: configuration not given here. Bip = N[C@@H](Cc1ccc(-c2ccccc2)cc1)C(=O)O; Phe(4-Cl) = N[C@@H](Cc1ccc(Cl)cc1)C(=O)O; NMeF = CN[C@@H](Cc1ccccc1)C(=O)O; NMeA = CN[C@@H](C)C(=O)O; ξD = NC(CC(=O)O)C(=O)O

Molecular target: human PCSK9 (Homo sapiens, UniProt Q8NBP7)
Experiment: PCSK9 ligand binding assay (TR-FRET): interference with binding of human PCSK9 to human LDLR
Conditions: for Maximum % inhibition: PCSK9 FRET assay, efficacy (Amax), 0% = DMSO, 100% = 1 uM unlabeled human PCSK9; for IC50: TR-FRET, Human PCSK9 Alexa Fluor 647 and Human LDLR extracellular domain-Europium Kryptate
Description: The activity of cyclic polypeptides according to the disclosure as PCSK9 can be assessed using a time resolved fluorescence resonance energy transfer (TR-FRET) assay. This time resolved fluorescence resonance energy transfer (TR-FRET) assay measures the ability of a cyclic polypeptides of the disclosure to interfere with the binding of human PCSK9 to human LDLR, providing measures of both potency (IC50) and efficacy (Amax).
Solutions of varying concentrations are prepared by diluting a cyclic polypeptide of the disclosure in dimethylsulfoxide (DMSO) and the resulting solutions are pipetted into a plate. DMSO is used as a negative control. An intermediate plate is prepared in by transferring a known amount of each polypeptide solution and of the control from the compound plate into a corresponding well containing assay buffer and mixing thoroughly. A third plate is then prepared to be used for the assay by adding Human PCSK9 Alexa Fluor 647, followed by a known amount of each solution from the intermediate plate. Unlabeled human PCSK9 in assay buffer containing DMSO is used as a positive control for the assay. Following incubation, Human LDLR extracellular domain-Europium Kryptate is added to each well of the assay plate and the resulting mixture is incubated for an additional period of time. The TR-FRET signal is measured and the FRET ratio (FRET/Europium) is used to calculate the IC50 and Amax of the cyclic polypeptides.
The PCSK9 binding of the cyclic polypeptides of the disclosure were measured using a time resolved fluorescence resonance energy transfer (TR-FRET) assay. This time resolved fluorescence resonance energy transfer (TR-FRET) assay measures the ability of a cyclic polypeptide of the disclosure to interfere with the binding of human PCSK9 to human LDLR, providing measures of both potency (IC50) and efficacy (Amax).
• Human PCSK9 • Human PCSK9 Alexa Fluor 647 • Human LDLR extracellular domain-Europium Kryptate • Proxi plate-low volume assay plate (PerkinElmer #6008280) • Greiner V-bottom (Greiner BioOne #781280) • Assay Buffer • 20 mM HEPES, pH 7.5 • 150 mM NaCl • 1 mM CaCl2 • 0.01% v/v Tween20 • 0.01% w/v BSA
A master compound plate was prepared in a Greiner V bottom plate by diluting cyclic polypeptides of the disclosure in dimethylsulfoxide to the correct concentration for the desired top concentration based on the desired final concentration: for a 30 uM final concentration the master plate concentration is 1.5 mM (68 uL DMSO+12 uL 10 mM of a cyclic polypeptide of the disclosure), for a 10 uM final concentration the master plate concentration is 0.5 mM (76 uL DMSO+4 uL 10 mM of a cyclic polypeptide of the disclosure), for a 3 uM final concentration the master plate concentration is 150 uM (69 uL DMSO+1 uL 10 mM a cyclic peptide of the disclosure). These solutions were pipetted into columns 1 and 11 of the compound plate. Threefold serial dilutions were generated in columns 2-10 and 12-20 of the compound plate by transferring 10 uL into 20 μL of DMSO. Columns 21 and 22 of the compound plate were negative controls containing DMSO alone.
An intermediate plate was generated in a Greiner V bottom plate by transferring 8 uL from each well of the master plate into a corresponding well containing 92 μL of assay buffer and mixing thoroughly.
A Proxi plate-low volume assay plate was used for the assay. To all wells of the plate was added 10 μL of 16 nM Human PCSK9 Alexa Fluor 647, followed by 5 uL from the intermediate plate. […] Following a 30 minute incubation, 5 μL of 4 nM Human LDLR extracellular domain-Europium Kryptate was added and the mixture was incubated for an additional 2 hours.
The TR-FRET signal was measured on an EnVision or PheraStar instrument with a […] delay, 330 nm excitation and 665 nm emission (FRET), and 330 nm excitation and 615 nm (Europium). The FRET ratio (FRET/Europium) was used for calculations. […]

Sequence of human PCSK9 (Q8NBP7 153-692): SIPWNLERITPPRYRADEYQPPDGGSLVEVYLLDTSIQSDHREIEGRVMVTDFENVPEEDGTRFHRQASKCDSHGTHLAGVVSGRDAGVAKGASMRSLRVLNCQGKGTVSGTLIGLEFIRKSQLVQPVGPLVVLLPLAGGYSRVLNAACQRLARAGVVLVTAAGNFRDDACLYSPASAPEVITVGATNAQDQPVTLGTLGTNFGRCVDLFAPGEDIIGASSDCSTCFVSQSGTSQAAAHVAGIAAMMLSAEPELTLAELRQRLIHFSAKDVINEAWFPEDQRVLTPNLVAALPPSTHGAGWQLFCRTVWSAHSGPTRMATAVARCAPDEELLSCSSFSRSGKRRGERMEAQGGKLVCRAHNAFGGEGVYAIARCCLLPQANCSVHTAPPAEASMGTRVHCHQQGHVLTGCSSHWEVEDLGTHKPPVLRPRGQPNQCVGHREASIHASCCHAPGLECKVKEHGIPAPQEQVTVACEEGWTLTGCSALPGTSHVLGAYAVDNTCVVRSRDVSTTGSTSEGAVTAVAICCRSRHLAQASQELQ
Sequence of human PCSK9 (Q8NBP7 31-152 partner limits assumed): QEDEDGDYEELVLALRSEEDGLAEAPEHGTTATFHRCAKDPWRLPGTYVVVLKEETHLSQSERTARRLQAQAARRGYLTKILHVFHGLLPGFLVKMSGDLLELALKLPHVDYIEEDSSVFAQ

SMILES: CC(C)[C@@H]1NC(=O)[C@H](Cc2ccccc2)NC(=O)CSC[C@@H](C(N)=O)NC(=O)[C@@H]2CCCN2C(=O)[C@H](CCCNC(=N)N)NC(=O)[C@H](CC(=O)O)NC(=O)[C@H](C)N(C)C(=O)[C@H](Cc2ccc(-c3ccccc3)cc2)NC(=O)[C@H](C)N(C)C(=O)[C@H](Cc2ccc(-c3ccccc3)cc2)NC(=O)[C@H]([C@@H](C)O)NC(=O)[C@H]([C@@H](C)O)NC(=O)[C@H](CO)NC1=O [Example 2-4, Ac*-F-V-S-T-T-B-(N-Me)A-B-(N-Me)A-D-R-P-C*-NH2] ({CH2CO}-FVSTT[Bip][NMeA][Bip][NMeA]DRPC-NH2; thioether N-13)
- Maximum % inhibition: 28%

SMILES: CC(C)[C@@H]1NC(=O)[C@H](Cc2ccccc2)NC(=O)CSC[C@@H](C(N)=O)NC(=O)[C@@H]2CCCN2C(=O)[C@H](C)NC(=O)[C@@H]2CCCN2C(=O)[C@H](C)N(C)C(=O)[C@H](Cc2ccc(Cl)cc2)NC(=O)[C@H](C)N(C)C(=O)[C@H](Cc2ccccc2)NC(=O)[C@H]([C@@H](C)O)NC(=O)[C@H]([C@@H](C)O)NC(=O)[C@@H]2CCCN2C1=O [Example 2-1, (6S,8aS,14S,17S,20S,23S,26S,29S,31aS,37S,40S,46R,48aS)-23,40-dibenzyl-17-(4-chlorobenzyl)-26,29-bis((R)-1-hydroxyethyl)-37-isopropyl-6,14,15,20,21-pentamethyl-5,8,13,16,19,22,25,28,31,36,39,42,48-tridecaoxohexatetracontahydro-13H-tripyrrolo[1,2-e1:1′,2′-j:1″,2″-k1][1]thia[4,7,10,13,16,19,22,25,28,31,34,37,40]tridecaazacyclodo-tetracontine-46-carboxamide] ({CH2CO}-FVPTTF[NMeA][Phe(4-Cl)][NMeA]PAPC-NH2; thioether N-13)
- Maximum % inhibition: 50%

SMILES: CC(C)[C@@H]1NC(=O)[C@H](Cc2ccccc2)NC(=O)CSC[C@@H](C(=O)NCC(N)=O)NC(=O)[C@@H]2CCCN2C(=O)[C@H](CCCNC(=N)N)NC(=O)[C@H](CC(=O)O)NC(=O)[C@H](C)N(C)C(=O)[C@H](Cc2ccc(-c3ccccc3)cc2)NC(=O)[C@H](Cc2ccccc2)N(C)C(=O)[C@H](CO)NC(=O)[C@H]([C@@H](C)O)NC(=O)[C@H]([C@@H](C)O)NC(=O)[C@H](CO)NC1=O [Example 1-9, Ac*-F-V-S-T-T-S-(N-Me)F-B-(N-Me)A-D-R-P-C*-G-NH2] ({CH2CO}-FVSTTS[NMeF][Bip][NMeA]DRPCG-NH2; thioether N-13)
- Maximum % inhibition: 35%

SMILES: CC(C)[C@@H]1NC(=O)[C@H](Cc2ccccc2)NC(=O)CSC[C@@H](C(=O)NCC(N)=O)NC(=O)[C@@H]2CCCN2C(=O)[C@H](CO)NC(=O)[C@H](CCC(=O)O)NC(=O)[C@H](C)N(C)C(=O)[C@H](Cc2ccc(-c3ccccc3)cc2)NC(=O)[C@H](Cc2ccccc2)N(C)C(=O)[C@H](Cc2ccc(-c3ccccc3)cc2)NC(=O)[C@H]([C@@H](C)O)NC(=O)[C@H]([C@@H](C)O)NC(=O)[C@H](CO)NC1=O [Example 1-13, Ac*-F-V-S-T-T-B-(N-Me)F-B-(N-Me)A-E-S-P-C*-G-NH2] ({CH2CO}-FVSTT[Bip][NMeF][Bip][NMeA]ESPCG-NH2; thioether N-13)
- Maximum % inhibition: 86%

SMILES: CCNC(=O)[C@@H]1CSCC(=O)N[C@@H](Cc2ccccc2)C(=O)N[C@@H](C(C)C)C(=O)N2CCC[C@H]2C(=O)N[C@@H]([C@@H](C)O)C(=O)N[C@@H]([C@@H](C)O)C(=O)N[C@@H](Cc2ccccc2)C(=O)N(C)[C@@H](C)C(=O)N[C@@H](Cc2ccc(-c3ccccc3)cc2)C(=O)N(C)[C@@H](C)C(=O)N[C@@H](CCC(=O)O)C(=O)N[C@@H](C)C(=O)N2CCC[C@H]2C(=O)N1 [Example 3-2, Ac*-F-V-P-T-T-F-(N-Me)A-B-(N-Me)A-E-A-P-C*-NHEt] ({CH2CO}-FVPTTF[NMeA][Bip][NMeA]EAPC-NHEt; thioether N-13)
- Maximum % inhibition: 83%

SMILES: CC(C)[C@@H]1NC(=O)[C@H](Cc2ccccc2)NC(=O)CSC[C@@H](C(=O)NCC(N)=O)NC(=O)[C@@H]2CCCN2C(=O)[C@H](CO)NC(=O)[C@@H]2CCCN2C(=O)[C@H](C)N(C)C(=O)[C@H](Cc2ccc(-c3ccccc3)cc2)NC(=O)[C@H](C)N(C)C(=O)[C@H](Cc2ccc(-c3ccccc3)cc2)NC(=O)[C@H]([C@@H](C)O)NC(=O)[C@H]([C@@H](C)O)NC(=O)[C@H](CO)NC1=O [Example 1-20, Ac*-F-V-S-T-T-B-(N-Me)A-B-(N-Me)A-P-S-P-C*-G-NH2] ({CH2CO}-FVSTT[Bip][NMeA][Bip][NMeA]PSPCG-NH2; thioether N-13)
- Maximum % inhibition: 35%

SMILES: CC(C)[C@@H]1NC(=O)[C@H](Cc2ccccc2)NC(=O)CSC[C@@H](C(N)=O)NC(=O)[C@@H]2CCCN2C(=O)[C@H](C)NC(=O)C(CC(=O)O)NC(=O)[C@H](C)N(C)C(=O)[C@H](Cc2ccc(Cl)cc2)NC(=O)[C@H](C)N(C)C(=O)[C@H](Cc2ccccc2)NC(=O)[C@H]([C@@H](C)O)NC(=O)[C@H]([C@@H](C)O)NC(=O)[C@@H]2CCCN2C1=O (stereo partly drawn) [Example 2-2, Ac*-F-V-P-T-T-F-(N-Me)A-(p-Cl)F-(N-Me)A-D-A-P-C*-NH2] ({CH2CO}-FVPTTF[NMeA][Phe(4-Cl)][NMeA][ξD]APC-NH2; thioether N-13)
- Maximum % inhibition: 72%

SMILES: CC(C)[C@@H]1NC(=O)[C@H](Cc2ccccc2)NC(=O)CSC[C@@H](C(=O)NCC(N)=O)NC(=O)[C@@H]2CCCN2C(=O)[C@H](CO)NC(=O)[C@H](CCCCN)NC(=O)[C@H](C)N(C)C(=O)[C@H](Cc2ccc(-c3ccccc3)cc2)NC(=O)[C@H](C)N(C)C(=O)[C@H](CO)NC(=O)[C@H]([C@@H](C)O)NC(=O)[C@H]([C@@H](C)O)NC(=O)[C@H](CC(=O)O)NC1=O [Example 1-7, Ac*-F-V-D-T-T-S-(N-Me)A-B-(N-Me)A-K-S-P-C*-G-NH2] ({CH2CO}-FVDTTS[NMeA][Bip][NMeA]KSPCG-NH2; thioether N-13)
- Maximum % inhibition: 60%
- IC50: 410 nM

SMILES: CC(C)[C@@H]1NC(=O)[C@H](Cc2ccccc2)NC(=O)CSC[C@@H](C(=O)NCC(N)=O)NC(=O)[C@@H]2CCCN2C(=O)[C@H](CCCNC(=N)N)NC(=O)[C@H](CC(=O)O)NC(=O)[C@H](C)N(C)C(=O)[C@H](Cc2ccc(-c3ccccc3)cc2)NC(=O)[C@H](C)N(C)C(=O)[C@H](Cc2ccc(-c3ccccc3)cc2)NC(=O)[C@H]([C@@H](C)O)NC(=O)[C@H]([C@@H](C)O)NC(=O)[C@@H]2CCCN2C1=O [Example 1-19, Ac*-F-V-P-T-T-B-(N-Me)A-B-(N-Me)A-D-R-P-C*-G-NH2] ({CH2CO}-FVPTT[Bip][NMeA][Bip][NMeA]DRPCG-NH2; thioether N-13)
- Maximum % inhibition: 38%

SMILES: CC(C)[C@@H]1NC(=O)[C@H](Cc2ccccc2)NC(=O)CSC[C@@H](C(=O)NCC(N)=O)NC(=O)[C@@H]2CCCN2C(=O)[C@H](C)NC(=O)[C@H](CCC(=O)O)NC(=O)[C@H](C)N(C)C(=O)[C@H](Cc2ccc(-c3ccccc3)cc2)NC(=O)[C@H](Cc2ccccc2)N(C)C(=O)[C@H](C)NC(=O)[C@H]([C@@H](C)O)NC(=O)[C@H]([C@@H](C)O)NC(=O)[C@@H]2CCCN2C1=O [Example 1-21, Ac*-F-V-P-T-T-A-(N-Me)F-B-(N-Me)A-E-A-P-C*-G-NH2] ({CH2CO}-FVPTTA[NMeF][Bip][NMeA]EAPCG-NH2; thioether N-13)
- Maximum % inhibition: 81%

SMILES: C[C@@H]1NC(=O)[C@H](C)N(C)C(=O)[C@H](Cc2ccc(-c3ccccc3)cc2)NC(=O)[C@H](C)N(C)C(=O)[C@H](Cc2ccccc2)NC(=O)[C@H]([C@@H](C)O)NC(=O)[C@H]([C@@H](C)O)NC(=O)[C@H](CC(N)=O)NC(=O)[C@H](CCC(=O)O)NC(=O)[C@H](Cc2ccccc2)NC(=O)CSC[C@@H](C(=O)NCC(N)=O)NC(=O)[C@@H]2CCCN2C(=O)[C@H](CO)NC1=O [Example 1-27, Ac*-F-E-N-T-T-F-(N-Me)A-B-(N-Me)A-A-S-P-C*-G-NH2] ({CH2CO}-FENTTF[NMeA][Bip][NMeA]ASPCG-NH2; thioether N-13)
- Maximum % inhibition: 55%
- IC50: 410 nM
